Target: T1, ecLpxC (UDP-3-O-acyl-N-acetylglucosamine deacetylase) (Escherichia coli, UniProt P0A725)
T1 sequence (P0A725 1-305): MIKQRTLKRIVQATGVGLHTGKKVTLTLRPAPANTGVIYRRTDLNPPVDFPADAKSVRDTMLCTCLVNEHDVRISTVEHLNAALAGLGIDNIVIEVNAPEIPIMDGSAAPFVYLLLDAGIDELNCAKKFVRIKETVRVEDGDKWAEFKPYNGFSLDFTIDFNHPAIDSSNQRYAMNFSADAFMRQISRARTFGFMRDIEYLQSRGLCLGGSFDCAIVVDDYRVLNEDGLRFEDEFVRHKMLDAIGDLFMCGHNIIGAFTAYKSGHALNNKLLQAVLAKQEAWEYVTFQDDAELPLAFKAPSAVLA
Assay: residence time on purified ecLpxC by displacement with fluorescent ligand PT900
Type: binding
Conditions: read-out: tR (min)^b

SMILES: C[C@@H](O)[C@H](NC(=O)c1ccc(C#Cc2ccc(CN3CCOCC3)cc2)cc1)C(=O)NO [CHIR-090]
- residence time: 66 ± 30 min

From paper PMC8791448 (ACS infectious diseases, 2021)
